Assay [1] addresses Bovine chymotrypsin (Bos taurus, UniProt P00766). Description: Inhibition of chymotrypsin, AAPF-pNA substrate. The conditions noted are these: Chymotrypsin (5 nM), AAPF-pNA 0.08 mM. The class given is biochemical.
Assay [2] has as its target T1, Factor XIIa (Homo sapiens, UniProt P00748).
T1 sequence (P00748 373-615 limits assumed): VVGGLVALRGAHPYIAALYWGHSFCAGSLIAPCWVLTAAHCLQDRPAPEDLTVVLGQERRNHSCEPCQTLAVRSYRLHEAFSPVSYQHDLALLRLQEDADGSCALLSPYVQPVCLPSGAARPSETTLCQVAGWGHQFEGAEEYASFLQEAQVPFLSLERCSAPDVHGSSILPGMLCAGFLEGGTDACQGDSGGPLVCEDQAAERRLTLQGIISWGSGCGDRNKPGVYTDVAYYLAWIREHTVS
Nature of the assay: Inhibition of Factor XIIa, PFR-AMC substrate. The class given is biochemical.

Take `CC[C@H](C)[C@H](N)C(=O)N[C@@H](Cc1c[nH]cn1)C(=O)N[C@@H](CC(=O)O)C(=O)N[C@@H](Cc1ccccc1)C(=O)N[C@H]1CSSC[C@@H](C(=O)N[C@@H](C)C(=O)N[C@H](C(=O)N[C@H](C(=O)O)C(C)C)[C@@H](C)O)NC(=O)[C@H](CCCCN)NC(=O)[C@H](CCCCN)NC(=O)[C@H](CC(C)C)NC(=O)[C@@H]2CSSC[C@@H]3NC(=O)[C@H](CO)NC(=O)CNC(=O)[C@H](CC(=O)O)NC(=O)[C@H]([C@@H](C)O)NC(=O)[C@H](C(C)C)NC(=O)[C@H](CC(N)=O)NC(=O)[C@H](Cc4ccc(O)cc4)NC(=O)[C@H](Cc4c[nH]c5ccccc45)NC(=O)[C@H](Cc4c[nH]c5ccccc45)NC(=O)[C@H](CCCNC(=N)N)NC(=O)[C@@H]4CCCN4C(=O)[C@H](CCSC)NC(=O)[C@H](CO)NC(=O)[C@H](C)NC(=O)[C@H](CCCNC(=N)N)NC(=O)[C@H](CSSC[C@H](NC(=O)CNC(=O)CNC(=O)[C@H](Cc4ccc(O)cc4)NC(=O)[C@H](C(C)C)NC(=O)[C@H](Cc4ccccc4)NC(=O)[C@H](CC(C)C)NC(=O)[C@H](CCC(N)=O)NC3=O)C(=O)N[C@@H](CC(=O)O)C(=O)NCC(=O)N[C@@H](CC(N)=O)C(=O)N[C@@H](CO)C(=O)N[C@@H](CC(N)=O)C(=O)N[C@@H](CC(N)=O)C(=O)N[C@@H](Cc3ccc(O)cc3)C(=O)N[C@@H](CC(C)C)C(=O)N[C@@H]([C@@H](C)O)C(=O)N[C@@H](CCCCN)C(=O)N[C@@H](CCC(=O)O)C(=O)N[C@@H](CCC(=O)O)C(=O)N2)NC(=O)[C@H](CCCNC(=N)N)NC(=O)CNC(=O)[C@H](C(C)C)NC(=O)[C@H](C(C)C)NC(=O)[C@H](CCCCN)NC(=O)[C@H](CO)NC(=O)[C@H](C(C)C)NC(=O)[C@H](CC(C)C)NC1=O` [bikunin (7–64)]: the Ki was 600 pM in assay [1] and greater than 300000 pM in assay [2].

As usually defined, the Ki is the dissociation constant of the complex between target and ligand, obtained from inhibition or displacement. The low end stands for tighter binding, the high end for weaker binding.

(Values after patent US7019123B2, “Human bikunin” (Bayer Corporation, priority 1996, dated 2006).)
